The values that follow come from US20250032426A1, “PHARMACEUTICAL COMPOSITIONS” (SpecNova LLC, priority 2021, published 2025).

This test has as its target Human Dopamine Transporter (DAT) (Homo sapiens, UniProt Q01959). The experiment in a line: Human Dopamine Transporter (DAT) Binding (Antagonist Radioligand) Assay. To be noted: for % of Control Specific Binding (1st Test) / % of Control Specific Binding (2nd Test) / % Inhibition of Control Specific Binding / % of Control Specific Binding (mean of two tests): [3H]BTCP 4 nM radioligand; for % Inhibition of Control Specific Binding: cell membrane homogenates, 120 min at 4° C., test concentration not given; for level of inhibition in the dopamine transporter inhibitory assay (in words): qualitative statement in the description. As to the method:
Human Dopamine Transporter (DAT) Binding (Antagonist Radioligand) Assay
Nonspecific binding is determined in the presence of 10 μM BTCP. Following incubation, the samples are filtered rapidly under vacuum through glass fiber filters (GF/B, Packard) presoaked with 0.3% PEI and rinsed several times with ice-cold 50 mM Tris-HCl using a 96-sample cell harvester (Unifilter, Packard). The filters are dried then counted for radioactivity in a scintillation counter (Topcount, Packard) using a scintillation cocktail (Microscint 0, Packard). The results are expressed as a percent inhibition of the control radioligand specific binding.

SMILES strings stand for the structures.

Sequence of Human Dopamine Transporter (DAT) (Q01959 whole entry): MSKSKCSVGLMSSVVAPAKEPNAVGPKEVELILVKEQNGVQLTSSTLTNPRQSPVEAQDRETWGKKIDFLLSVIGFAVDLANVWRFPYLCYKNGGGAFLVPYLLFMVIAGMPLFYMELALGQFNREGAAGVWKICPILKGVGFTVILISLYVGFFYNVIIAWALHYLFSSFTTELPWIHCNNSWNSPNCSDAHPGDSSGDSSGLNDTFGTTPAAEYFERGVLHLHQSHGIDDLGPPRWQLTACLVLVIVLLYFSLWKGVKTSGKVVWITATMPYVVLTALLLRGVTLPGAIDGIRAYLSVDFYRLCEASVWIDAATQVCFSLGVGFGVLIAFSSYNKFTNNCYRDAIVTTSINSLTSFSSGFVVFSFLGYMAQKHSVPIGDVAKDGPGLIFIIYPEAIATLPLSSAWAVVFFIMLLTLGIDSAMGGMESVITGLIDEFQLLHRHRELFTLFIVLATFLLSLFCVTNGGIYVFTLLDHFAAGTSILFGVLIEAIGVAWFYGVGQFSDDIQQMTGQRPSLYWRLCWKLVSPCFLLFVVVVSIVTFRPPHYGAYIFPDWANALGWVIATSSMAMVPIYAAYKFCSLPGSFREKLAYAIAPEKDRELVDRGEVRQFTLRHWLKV

Take `OC[C@@H](O)[C@@H](/C=C/c1ccc(O)cc1)c1ccc(O)c(O)c1` [Sequirin C, 4-[(1S,2E)-1-[(1S)-1,2-dihydroxyethyl]-3-(4-hydroxyphenyl)prop-2-en-1-yl]benzene-1,2-diol]: the “% of Control Specific Binding (1st Test)” value is on record as 7.4%, the “% of Control Specific Binding (2nd Test)” value came out at 5.6%, the “% Inhibition of Control Specific Binding” value came out at 94% and the “% of Control Specific Binding (mean of two tests)” value is recorded as 6.5%. Moreover, the “level of inhibition in the dopamine transporter inhibitory assay (in words)” value (shortened to “level of inhibition”) is recorded as “extremely high level of inhibition”.

Take `CC(C)=CCc1c(C2CCc3ccc(O)cc3O2)ccc(O)c1O` (stereo in doubt) [Kazinol U, 4-[(2S)-7-hydroxy-3,4-dihydro-2H-chromen-2-yl]-3-(3-methylbut-2-enyl) benzene-1,2-diol]: the “% of Control Specific Binding (1st Test)” value was found to be 33.6%, the “% of Control Specific Binding (2nd Test)” value came out at 42.8%, the “% Inhibition of Control Specific Binding” value is recorded as 62% and the “% of Control Specific Binding (mean of two tests)” value amounted to 38.2%. For the same molecule, the “level of inhibition” value is “high level of inhibition”.

For `OC[C@@H](O)[C@@H](/C=C/c1ccc(O)cc1)c1ccc(O)cc1` [Agatharesinol, (2S,3S,4E)-3,5-bis(4-hydroxyphenyl)pent-4-ene-1,2-diol], the “% of Control Specific Binding (1st Test)” value came to 4.2%, the “% of Control Specific Binding (2nd Test)” value was 5%, the “% Inhibition of Control Specific Binding” value was 95% and the “% of Control Specific Binding (mean of two tests)” value is 4.6%. Moreover, the “level of inhibition” value is “extremely high level of inhibition”.
